Experimental data from patent publication US20080191170A1, “Use of Ionic Liquids” (CAMBRIDGE UNIVERSITY TECHNICAL SERVICES LIMITED, priority 2004, published 2008).
Like-named read-outs stand apart in the source and are kept apart here.

Experiments:
[1] = Water miscibility of silyl-protected ionic liquid; assay type: physicochemical
Procedure: Dry 3-HOPMIm PF6(2.86 g, 10 mmol) was placed in a round-bottomed flask and dissolved in 50 ml dry THF. Dry trimethylsilyl (TMS) chloride (1.05 g) was added in dry THF solution, dropwise over a period of 30 minutes, with external cooling and stirring, under an atmosphere of dry argon. Stirring was continued for 12 hours.
At the completion of the reaction (TLC), the solvent was removed in vacuo to yield the silyl-protected ionic liquid (3.52 g, 98%), 3-TMSOPMIm PF6.

[2] = target: T1, morphine dehydrogenase (MDH) (Pseudomonas putida, UniProt Q02198); details: ionic liquid as medium, cited from earlier work; for Net % codeinone: <100 ppm water, glucose dehydrogenase recycling NADP+
T1 sequence (Q02198 1-296): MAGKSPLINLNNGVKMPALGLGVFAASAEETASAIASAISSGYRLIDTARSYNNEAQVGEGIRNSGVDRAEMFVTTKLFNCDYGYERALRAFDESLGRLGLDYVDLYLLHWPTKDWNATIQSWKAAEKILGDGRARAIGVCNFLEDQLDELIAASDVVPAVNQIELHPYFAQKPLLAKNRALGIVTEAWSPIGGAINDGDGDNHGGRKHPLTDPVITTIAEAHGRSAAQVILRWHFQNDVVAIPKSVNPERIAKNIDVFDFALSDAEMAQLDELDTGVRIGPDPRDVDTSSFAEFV

[3] = Viscosity of ionic liquid (AND Vibro SV10); assay type: physicochemical; details: at 25° C.
Procedure: (§1) Refractive index was measured using a Mettler Toledo Refracto™ 30PX, using a single wavelength light source (the sodium D-line at 589.3 nm). Viscosity was measured using an AND Vibro™ SV10 instrument, which measures viscosity by controlling the amplitude of vibrations of sensor plates submerged in a liquid, detecting changes in the electric current needed to drive the plates.

[4] = Refractive index of ionic liquid (Mettler Toledo Refracto 30PX, sodium D-line 589.3 nm); assay type: physicochemical; details: sodium D-line at 589.3 nm
Procedure: as §1

[5] = Solubility of penicillin G (sodium salt) in ionic liquid solvents; assay type: physicochemical

Cn1cc[n+](CCCO[Si](C)(C)C)c1.F[P-](F)(F)(F)(F)F [3-TMSOPMIm PF6]
miscibility with water [1]: effectively immiscible with water

CCCCn1cc[n+](C)c1.F[P-](F)(F)(F)(F)F [BMIm PF6]
Net % codeinone ([2]; 1 hour): 0% | Net % codeinone ([2]; 4 hours): 0% | Net % codeinone ([2]; 24 hours): 2% | MDH activity in the ionic liquid (in words) [2]: extremely low

CCCCn1cc[n+](C)c1.O=C([O-])CO [BMIm glycolate]
Net % codeinone ([2]; 1 hour): 0% | Net % codeinone ([2]; 4 hours): 5% | Net % codeinone ([2]; 24 hours): 12% | MDH activity in the ionic liquid (in words) [2]: greatly improved

C[n+]1ccn(CCCO)c1.[Cl-] [HOPMIm Cl, hydroxypropyl methyl imidazolium chloride]
Net % codeinone ([2]; 1 hour): 0% | Net % codeinone ([2]; 4 hours): 0% | Net % codeinone ([2]; 24 hours): Small | MDH activity in the ionic liquid (in words) [2]: very little activity

C[n+]1ccn(CCCO)c1.F[P-](F)(F)(F)(F)F [HOPMIm PF6]
Net % codeinone ([2]; 1 hour): 2% | Net % codeinone ([2]; 4 hours): 9% | Net % codeinone ([2]; 24 hours): 20% | MDH activity in the ionic liquid (in words) [2]: high level

C[n+]1ccn(CCCO)c1.O=C([O-])CO [HOPMIm glycolate]
Net % codeinone ([2]; 1 hour): small | Net % codeinone ([2]; 4 hours): 5% | Net % codeinone ([2]; 24 hours): 16% | MDH activity in the ionic liquid (in words) [2]: moderate level of activity

CC(=O)O.CCCCN(CCO)CCO [Pure n-butyl diethanolammonium acetate, n-butyl diethanolammonium acetate]
Viscosity [3]: ~285 mPa · s | Refractive index [4]: 1.464

CCCCN(CCO)CCO.O=C(O)C(F)(F)F [n-butyl diethanolammonium trifluoroacetate]
Viscosity [3]: 440 mPa · s | Refractive index [4]: 1.434

CC1(C)S[C@@H]2[C@H](NC(=O)Cc3ccccc3)C(=O)N2[C@H]1C(=O)[O-].[Na+] [penicillin G (sodium salt)]
solubility ([5]; in dimethyl ethanolammonium crotonate/ethanol (25/75 v/v)): ~50 mg/mL | solubility ([5]; in dimethyl ethanolammonium trifluoroacetate/ethanol (25/75 v/v)): 76 mg/mL | solubility ([5]; in pure dimethyl ethanolammonium crotonate): ~20 mg/mL | solubility ([5]; in pure dimethyl ethanolammonium trifluoroacetate): > 275 mg/mL
